# Reference: ChEMBL document CHEMBL5518227, “Discovery of JNJ-1802, a First-in-Class Pan-Serotype Dengue Virus NS4B Inhibitor” (J Med Chem, 2024)
# pEC50, pIC50: −log10 of the molar value.
# Experiments:
# dengue virus type 1 = test: Antiviral activity against DENV-1 TC974#666 infected in african green monkey Vero cells incubated for 24 hrs measured after 3 days post infection by RT-PCR analysis; assay type: functional, organism-based; details: Dengue virus, TC974#666, Vero; read-out: EC50
# dengue virus type 2 [1] = test: Antiviral activity against DENV-2 16681 expressing eGFP infected in african green monkey Vero cells incubated with cells for 24 hrs followed by viral infection measured after 3 days by laser microscopic analysis; assay type: functional, organism-based; details: Dengue virus, 16681, Vero
# dengue virus type 3 = test: Antiviral activity against DENV-3 H87 infected in african green monkey Vero cells incubated for 24 hrs measured after 3 days post infection by RT-PCR analysis; assay type: functional, organism-based; details: Dengue virus, H87, Vero; read-out: EC50
# dengue virus type 4 = test: Antiviral activity against DENV-4 H241 infected in african green monkey Vero cells incubated for 24 hrs measured after 3 days post infection by RT-PCR analysis; assay type: functional, organism-based
# [2] = Clearance in Sprague-Dawley rat assessed as liver blood flow at 2.5 mg/kg, iv measured after 24 hrs by LC-MS/MS analysis; assay type: ADME, organism-based; details: in vivo
# [3] = Oral bioavailability in Sprague-Dawley rat at 10 mg/kg measured after 24 to 48 hrs by LC-MS/MS analysis; assay type: ADME, organism-based; details: in vivo, time 24-48 hrs
# [4] = Metabolic stability in dog hepatocytes assessed as intrinsic clearance measured per million cells incubated upto 120 mins by LC-MS/MS analysis; assay type: ADME, cell-based, Canis lupus familiaris, Hepatocyte; details: read-out: CLH
# [5] = Metabolic stability in cynomolgus monkey hepatocytes assessed as intrinsic clearance measured per million cells incubated upto 120 mins by LC-MS/MS analysis; assay type: ADME, cell-based, Macaca fascicularis, Hepatocyte; details: read-out: CLH
# [6] = Clearance in CD-1 mouse at 2.5 mg/kg, iv measured upto 24 hrs by LC-MS/MS analysis; assay type: ADME, organism-based; details: in vivo
# [7] = Volume of distribution at steady state in CD-1 mouse at 2.5 mg/kg, iv measured upto 24 hrs by LC-MS/MS analysis; assay type: ADME, organism-based; details: in vivo, read-out: Vdss
# [8] = Elimination half life in CD-1 mouse at 2.5 mg/kg, iv measured upto 24 hrs by LC-MS/MS analysis; assay type: ADME, organism-based; details: in vivo, read-out: beta t1/2 (converted)
# [9] = Cmax in CD-1 mouse at 10 mg/kg, po measured upto 24 hrs by LC-MS/MS analysis; assay type: ADME, organism-based; details: in vivo
# [10] = AUC in CD-1 mouse at 10 mg/kg, po measured upto 24 hrs by LC-MS/MS analysis; assay type: ADME, organism-based; details: in vivo
# [11] = Oral bioavailability in CD-1 mouse at 10 mg/kg measured upto 24 hrs by LC-MS/MS analysis; assay type: ADME, organism-based; details: in vivo
# [12] = Clearance in CD-1 mouse assessed as liver blood flow at 2.5 mg/kg, iv measured upto 24 hrs by LC-MS/MS analysis; assay type: ADME, organism-based; details: in vivo
# [13] = Volume of distribution at steady state in overnight fasted Beagle dog at 0.51 mg/kg, iv measured upto 24 hrs by LC-MS/MS analysis; assay type: ADME, organism-based, Canis lupus familiaris; details: in vivo, read-out: Vdss
# [14] = Clearance in 8 hrs fasted cynomolgus monkey assessed as liver blood flow at 1 mg/kg, iv measured upto 24 hrs by LC-MS/MS analysis; assay type: ADME, organism-based, Macaca fascicularis; details: in vivo
# [15] = Elimination half life in 8 hrs fasted cynomolgus monkey assessed as liver blood flow at 1 mg/kg, iv measured upto 24 hrs by LC-MS/MS analysis; assay type: ADME, organism-based, Macaca fascicularis; details: in vivo, read-out: beta t1/2 (converted)
# [16] = Distribution coefficient between 1-Octanol and aqueous phosphate buffer, logD of the compound at pH 7.4 by shake flask method; assay type: physicochemical; details: 1-octanol/aqueous phosphate buffer
# [17] = Plasma protein binding in human at 5 uM measured after 24 hrs by LC-MS/MS analysis; assay type: ADME, cell-free; details: read-out: PPB (converted)
# mouse P-gp = test: Apparent permeability across apical to basolateral side in pig LLC-PK1 cells transfected with mouse P-gp at 1 uM measured upto 120 mins; assay type: ADME, cell-based, Sus scrofa
# [18] = molecular target: Voltage-gated inwardly rectifying potassium channel KCNH2 (Homo sapiens, UniProt Q12809); test: Inhibition of human ERG stably expressed in CHO cells by automated Qpatch electrophysiological assay; assay type: toxicity, cell-based
# [19] = Mutagenicity in Salmonella typhimurium TA7002 in presence or absence of S9 fraction pretreated for 90 mins measured after 48 hrs in dark by AMES test; assay type: toxicity; details: salmonella enterica subsp. enterica serovar typhimurium, s9, 49.5 h; time 2970 min
# Cytochrome P450 2C8 = molecular target: T1, Cytochrome P450 2C8 (Homo sapiens, UniProt P10632); test: Inhibition of human CYP2C8 preincubated for 5 mins followed by NADPH addition measured after 5 to 30 mins by LC-MS analysis; assay type: ADME
# T1 sequence (P10632 whole entry): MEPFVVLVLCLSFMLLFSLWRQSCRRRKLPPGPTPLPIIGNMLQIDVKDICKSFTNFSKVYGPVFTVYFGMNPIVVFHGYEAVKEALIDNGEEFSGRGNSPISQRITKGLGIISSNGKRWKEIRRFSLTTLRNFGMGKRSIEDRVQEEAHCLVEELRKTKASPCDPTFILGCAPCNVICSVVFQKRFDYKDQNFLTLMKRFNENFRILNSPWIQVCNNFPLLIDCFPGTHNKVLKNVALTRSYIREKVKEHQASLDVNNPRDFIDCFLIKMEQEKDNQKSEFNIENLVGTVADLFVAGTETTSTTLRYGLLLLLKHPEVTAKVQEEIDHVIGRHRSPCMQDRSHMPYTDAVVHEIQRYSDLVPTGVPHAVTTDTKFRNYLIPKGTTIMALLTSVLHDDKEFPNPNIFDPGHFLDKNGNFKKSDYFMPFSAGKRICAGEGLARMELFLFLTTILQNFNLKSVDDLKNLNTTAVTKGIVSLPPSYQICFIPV
# Cytochrome P450 2C9 = Cytochrome P450 2C9 (Homo sapiens, UniProt P11712); test: Inhibition of human CYP2C9 preincubated for 5 mins followed by NADPH addition measured after 5 to 30 mins by LC-MS analysis; assay type: ADME
# Cytochrome P450 2D6 = Cytochrome P450 2D6 (Homo sapiens, UniProt P10635); test: Inhibition of human CYP2D6 preincubated for 5 mins followed by NADPH addition measured after 5 to 30 mins by LC-MS analysis; assay type: ADME
# Cytochrome P450 3A5 = Cytochrome P450 3A5 (Homo sapiens, UniProt P20815); test: Inhibition of human CYP3A5 preincubated for 5 mins followed by NADPH addition measured after 5 to 30 mins by LC-MS analysis; assay type: ADME; details: time 10-35 min
# dengue virus type 2 [20] = test: In vivo antiviral activity against DENV-2/RL infected in AG129 mouse assessed as increase in efficacy administered as po bid for 3 days; assay type: functional, organism-based; details: dose 0.2-60 mg/kg/day, time 3.0 day
# Chain of Cytochrome P450 3A5 (P20815 whole entry): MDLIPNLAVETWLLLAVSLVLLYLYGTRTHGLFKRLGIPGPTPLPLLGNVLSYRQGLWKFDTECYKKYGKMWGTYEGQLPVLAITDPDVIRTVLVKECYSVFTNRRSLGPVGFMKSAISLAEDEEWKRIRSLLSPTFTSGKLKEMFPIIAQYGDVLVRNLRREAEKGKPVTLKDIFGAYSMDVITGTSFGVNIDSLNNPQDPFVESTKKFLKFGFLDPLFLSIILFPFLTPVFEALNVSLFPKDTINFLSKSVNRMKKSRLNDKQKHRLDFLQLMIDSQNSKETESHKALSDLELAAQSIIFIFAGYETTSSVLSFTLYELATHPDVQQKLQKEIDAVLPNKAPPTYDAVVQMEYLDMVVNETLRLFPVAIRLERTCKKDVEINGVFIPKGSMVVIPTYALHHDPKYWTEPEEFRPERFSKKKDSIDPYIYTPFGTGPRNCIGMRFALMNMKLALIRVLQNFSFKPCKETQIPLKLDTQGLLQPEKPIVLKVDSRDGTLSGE
# Chain of Voltage-gated inwardly rectifying potassium channel KCNH2 (Q12809 whole entry): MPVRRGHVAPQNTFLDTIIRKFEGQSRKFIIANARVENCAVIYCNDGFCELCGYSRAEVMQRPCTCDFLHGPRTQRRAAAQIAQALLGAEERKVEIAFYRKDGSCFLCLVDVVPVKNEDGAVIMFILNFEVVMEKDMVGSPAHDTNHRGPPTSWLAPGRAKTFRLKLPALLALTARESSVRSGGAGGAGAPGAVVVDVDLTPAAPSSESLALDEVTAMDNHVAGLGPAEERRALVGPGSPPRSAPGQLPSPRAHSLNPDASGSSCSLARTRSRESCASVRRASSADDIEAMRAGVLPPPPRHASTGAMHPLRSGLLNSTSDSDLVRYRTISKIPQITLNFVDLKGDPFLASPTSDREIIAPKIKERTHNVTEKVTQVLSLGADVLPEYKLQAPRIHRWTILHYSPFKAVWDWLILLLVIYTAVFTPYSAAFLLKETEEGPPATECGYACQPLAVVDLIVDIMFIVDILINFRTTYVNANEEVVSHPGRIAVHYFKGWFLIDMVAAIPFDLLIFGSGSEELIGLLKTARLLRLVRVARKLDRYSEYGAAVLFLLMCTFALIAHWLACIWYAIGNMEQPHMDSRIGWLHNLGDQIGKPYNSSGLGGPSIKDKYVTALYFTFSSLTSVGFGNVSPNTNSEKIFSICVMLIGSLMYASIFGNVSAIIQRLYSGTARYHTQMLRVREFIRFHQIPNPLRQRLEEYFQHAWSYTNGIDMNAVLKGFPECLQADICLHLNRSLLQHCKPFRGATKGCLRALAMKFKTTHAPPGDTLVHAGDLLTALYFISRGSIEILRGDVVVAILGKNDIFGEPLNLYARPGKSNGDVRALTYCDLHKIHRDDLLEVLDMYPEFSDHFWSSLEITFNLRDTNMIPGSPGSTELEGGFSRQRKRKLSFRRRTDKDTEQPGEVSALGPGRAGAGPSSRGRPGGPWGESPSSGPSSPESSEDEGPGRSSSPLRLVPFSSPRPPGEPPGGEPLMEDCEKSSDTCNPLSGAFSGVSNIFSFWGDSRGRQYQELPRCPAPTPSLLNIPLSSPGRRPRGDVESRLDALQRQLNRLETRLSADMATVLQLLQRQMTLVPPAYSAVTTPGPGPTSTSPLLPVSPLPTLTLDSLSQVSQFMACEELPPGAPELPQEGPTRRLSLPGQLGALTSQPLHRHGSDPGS
# Chain of Cytochrome P450 2C9 (P11712 whole entry): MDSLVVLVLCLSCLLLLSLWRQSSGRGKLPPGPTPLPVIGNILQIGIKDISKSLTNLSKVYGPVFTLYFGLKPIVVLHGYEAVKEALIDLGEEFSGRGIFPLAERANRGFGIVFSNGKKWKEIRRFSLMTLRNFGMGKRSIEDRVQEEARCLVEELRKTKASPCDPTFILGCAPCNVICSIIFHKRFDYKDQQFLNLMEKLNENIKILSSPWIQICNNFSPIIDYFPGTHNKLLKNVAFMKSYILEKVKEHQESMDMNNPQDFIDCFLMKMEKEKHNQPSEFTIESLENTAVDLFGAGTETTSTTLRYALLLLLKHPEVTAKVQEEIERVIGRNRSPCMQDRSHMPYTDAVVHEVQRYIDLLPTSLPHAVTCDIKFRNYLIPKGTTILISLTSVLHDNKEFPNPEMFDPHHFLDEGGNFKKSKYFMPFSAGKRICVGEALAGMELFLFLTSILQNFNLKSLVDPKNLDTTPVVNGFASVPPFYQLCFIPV
# Chain of Cytochrome P450 2D6 (P10635 whole entry): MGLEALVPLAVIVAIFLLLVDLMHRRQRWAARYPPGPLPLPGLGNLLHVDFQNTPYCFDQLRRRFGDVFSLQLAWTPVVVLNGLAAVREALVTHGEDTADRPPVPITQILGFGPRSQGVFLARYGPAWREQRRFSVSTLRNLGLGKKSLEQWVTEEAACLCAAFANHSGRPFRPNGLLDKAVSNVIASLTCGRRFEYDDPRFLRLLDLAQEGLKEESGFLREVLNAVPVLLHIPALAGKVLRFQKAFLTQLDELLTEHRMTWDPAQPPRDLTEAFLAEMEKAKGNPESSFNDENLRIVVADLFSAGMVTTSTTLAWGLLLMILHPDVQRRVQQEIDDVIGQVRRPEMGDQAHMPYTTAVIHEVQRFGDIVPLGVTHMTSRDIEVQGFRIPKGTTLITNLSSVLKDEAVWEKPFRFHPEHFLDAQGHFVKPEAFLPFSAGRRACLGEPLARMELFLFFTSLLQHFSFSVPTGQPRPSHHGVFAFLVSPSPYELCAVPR
structure (smiles),measurement,setting,value
COc1cc(N[C@H](C(=O)c2c[nH]c3ccc(OC(F)(F)F)cc23)c2ccc(Cl)cc2OC)cc(S(C)(=O)=O)c1 [MOSNODENVIR],pEC50,dengue virus type 1,9.70
same,pEC50,dengue virus type 2 [1],10.24
same,pEC50,dengue virus type 3,8.70
same,pEC50,dengue virus type 4,7.96
same,LBF,[2],7%
same,bioavailability,[3],58%
same,hepatocyte CLint,[4],5.7 µL/min/1e6 cells
same,hepatocyte CLint,[5],< 1.9 µL/min/1e6 cells
same,clearance,[6],4.97 mL/min/kg
same,Vd,[7],2.5 L/kg
same,half-life,[8],6.2 h
same,Cmax,[9],2730 ng/mL
same,AUC at 24 h,[10],35600 ng·h/mL
same,bioavailability,[11],108%
same,LBF,[12],4%
same,Vd,[13],3.1 L/kg
same,LBF,[14],5%
same,half-life,[15],9.57 h
same,logD,[16],> 4.1
same,"fraction unbound at 24 h, 5 µM",[17],0.0014
same,"Papp A→B at 2 h, 1 µM",mouse P-gp,1 ×10⁻⁶ cm/s
same,pIC50,[18],< 4.52
same,Activity,[19],Non-Toxic
same,pIC50,Cytochrome P450 2C8,5.13
same,pIC50,Cytochrome P450 2C9,5.43
same,pIC50,Cytochrome P450 2D6,< 4.52
same,inhibition (INH),Cytochrome P450 3A5,Not Active
same,Activity,dengue virus type 2 [20],Dose-Dependent Effect
